Test results published in PMC11162409, “Phenylalanine as an effective stabilizer and aggregation inhibitor of Bacillus amyloliquefaciens alpha-amylase” (AMB Express, 2024).

Molecular target: Bacillus amyloliquefaciens alpha-amylase (BAA) (Bacillus amyloliquefaciens, UniProt P00692)
Experiment: Bernfeld DNS assay of starch hydrolysis ([…] nm) with commercial enzyme
Format: biochemical

Chain of Bacillus amyloliquefaciens alpha-amylase (BAA) (P00692 32-514): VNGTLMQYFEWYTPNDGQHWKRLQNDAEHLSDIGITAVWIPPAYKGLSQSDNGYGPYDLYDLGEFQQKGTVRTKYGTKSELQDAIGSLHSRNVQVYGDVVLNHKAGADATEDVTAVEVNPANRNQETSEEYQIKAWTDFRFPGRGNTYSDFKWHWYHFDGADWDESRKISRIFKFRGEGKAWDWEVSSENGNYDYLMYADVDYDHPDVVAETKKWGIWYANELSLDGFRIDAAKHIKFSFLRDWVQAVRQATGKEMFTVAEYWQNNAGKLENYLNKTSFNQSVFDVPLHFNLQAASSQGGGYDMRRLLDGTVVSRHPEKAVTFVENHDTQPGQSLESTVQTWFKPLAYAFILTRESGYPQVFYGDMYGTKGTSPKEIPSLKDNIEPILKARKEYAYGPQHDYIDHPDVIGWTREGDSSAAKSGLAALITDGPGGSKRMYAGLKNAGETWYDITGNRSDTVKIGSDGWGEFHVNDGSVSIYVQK

**Q.** Which IC50 does the source give for `N[C@@H](Cc1ccc(O)cc1)C(=O)O` [Tyr, tyrosine] here?
**A.** The IC50 was about 100 mM.
